Assay results taken from US20230165806A1, “Topical Therapy of Skin Fibrosis and Melanoma” (Board of Regents, The University of Texas System, priority 2021, published 2023).

Assay: Solubility of NAVI in COA ionic liquid
Assay type: physicochemical
Description: Skin melanoma remains one of the fastest-growing and the most common types of cancer in the United States and worldwide. Although primary melanoma can be removed by surgery if detected, advanced metastatic melanoma cannot be managed by surgery alone and thus an alternative and effective therapeutic approach is required. Direct local application of anti-cancer drugs may effectively treat topical cancerous skin lesions when surgery is not feasible. However, these therapies are severely limited due to the protective nature of the skin and the fact that current topical treatments may cause skin irritation, burning, light sensitivity, scaling, and inflammation. To treat early-stage melanoma, we have developed a topical formulation of Navitoclax (NAVI), a BCL-2 inhibitor that upregulates apoptosis, in association with an ionic liquid composed of Choline Octanoate (COA) at a molar ratio of 1:1. NAVI is a small hydrophobic molecule that solubilizes at 20% (w/v) when dissolved into 50% (DW v/v) COA. […] Therefore, COA-mediated topical delivery of NAVI enhanced transportation through the skin barrier and held the drug in the deeper skin layers for an extended period compared to the control.
The main challenges in treating fibrosis with chemotherapeutics are epidermal layer penetration, the appropriate concentration, and drug retention within the layer for a more extended period. […]

CC1(C)CCC(c2ccc(Cl)cc2)=C(CN2CCN(c3ccc(C(=O)NS(=O)(=O)c4ccc(N[C@H](CCN5CCOCC5)CSc5ccccc5)c(S(=O)(=O)C(F)(F)F)c4)cc3)CC2)C1 [NAVI, Navitoclax]
solubility (choline octanoate (COA) ionic liquid, aqueous with cosolvent or surfactant or cyclodextrin, with COA, read-out: solubility of NAVI increased by COA): ≤ 150 µg/mL | solubility of NAVI (dissolved into 50% (DW v/v) COA): 20 % (w/v)
